Legend:
[1] = Solubility test in fats or oils (crystal formation after standing overnight at room temperature); assay type: physicochemical
Excerpt: Three samples were used and they included not only a mixture of sesamin and episesamin (sesamin:episesamin=51.1:48.2) but also sesamin and episesamin that were individually purified from the mixture. The wheat germ oil was a product of RIKEN VITAMIN CO., LTD.; the olive oil was a product of nakalai tesque; used as middle-chain fatty acids (MCTs) were ACTOR M-1 (a triglyceride of middle-chain fatty acid with C8:C10:C12=56:42:2) and ACTOR M-2 (a triglyceride of C8 middle-chain fatty acid), both being products of RIKEN VITAMIN CO., LTD. The diacylglycerol was a commercial fat or oil (Econa Cooking Oil of KAO CORPORATION, an edible oil containing about 80% diacylglycerol).
Into test tubes, there were weighed 2 g of the respective fats or oils and various concentrations of the samples that increased from 0.5 to 10% (by weight) by an increment of 0.25%. Then, the test tubes were heated to 120° C. so that sesamin completely dissolved in the fats or oils. Thereafter, the test tubes were allowed to stand overnight at room temperature to examine whether crystals would be formed or not.

[2] = design: species or system rats; settings: rat, in vivo
Excerpt: It may well be said that a preferred mode of ingesting sesamin and/or episesamin is by dissolving them in fat or oil; however, sesamin and/or episesamin is only slightly soluble and has such low solubility in fat or oil (wheat germ oil) that not only is it difficult to incorporate them at high concentrations but, at the same time, even if they are incorporated at low concentrations, a crystal may precipitate during storage on account of their low storage stability. This crystal precipitation can potentially result in lowered absorbability, so considering the storage stability, there has been no alternative to incorporating them at concentrations considerably lower than their solubility in fat or oil (wheat germ oil). Under these circumstances, when one made an attempt to increase the dose of sesamin and/or episesamin that could be ingested at a time, the amount of the solvent fat or oil also had to be increased, inevitably resulting in an excessive calorie intake. In addition, the volume of the sesamin and/or episesamin containing composition that is prescribed becomes so large per unit dosage or their quantities to be ingested become so large that inconveniences in ingestion have occasionally occurred. […]

[3] = tested on: β-oxidation enzymes in the liver; settings: as compared with sesamin; cited from earlier work

| SMILES | factor of solubility improvement over wheat germ oil [1] | bodily absorption, solution in fat or oil vs suspension in water [2] | gene expression and enzymatic activity of β-oxidation enzymes in the liver [3] |
| --- | --- | --- | --- |
| c1cc2c(cc1[C@H]1OC[C@H]3[C@@H]1CO[C@@H]3c1ccc3c(c1)OCO3)OCO2 [Sesamin, sesamin] | 2.5-5.5 | significantly superior in bodily absorption | – |
| c1cc2c(cc1[C@H]1OC[C@H]3[C@@H]1CO[C@@H]3c1ccc3c(c1)OCO3)OCO2 [Episesamin, episesamin] | 2.5-5.5 | significantly superior in bodily absorption | markedly increasing |

Source: patent US9408803B2, “Compositions containing lignan-class compounds” (SUNTORY HOLDINGS LIMITED, priority 2006, dated 2016)
